# Patent publication US9388142B2, “Quinazolinone derivatives as PARP inhibitors” (MERCK PATENT GMBH, priority 2012, dated 2016)
# Like-named read-outs stand apart in the source and are kept apart here.
# Experiments:
# [1] = at 30 μM; cited from earlier work
# [2] = target: GST-tagged Tankyrase-2 (873-1166 aa) (Homo sapiens, UniProt Q9H2K2); experiment: biochemical
# Description: (§1) aq (aqueous), h (hour), g (gram), L (liter), mg (milligram), MHz (Megahertz), min. (minute), mm (millimeter), mmol (millimole), mM (millimolar), m.p. (melting point), eq (equivalent), mL (milliliter), L (microliter), ACN (acetonitrile), AcOH (acetic acid), CDCl3 (deuterated chloroform), CD3OD (deuterated methanol), CH3CN (acetonitrile), c-hex (cyclohexane), DCC (dicyclohexyl carbodiimide), DCM (dichloromethane), DIC (diisopropyl carbodiimide), DIEA (diisopropylethyl-amine), DMF (dimethylformamide), DMSO (dimethylsulfoxide), DMSO-d6 (deuterated dimethylsulfoxide), EDC (1-(3-dimethyl-amino-propyl)-3-ethylcarbodiimide), ESI (Electro-spray ionization), EtOAc (ethyl acetate), Et2O (diethyl ether), EtOH (ethanol), HATU (dimethylamino-([1,2,3]triazolo[4,5-b]pyridin-3-yloxy)-methylene]-dimethylammonium hexafluorophosphate), HPLC (High Performance Liquid Chromatography), i-PrOH (2-propanol), K2CO3 (potassium carbonate), LC (Liquid Chromatography), MeOH (methanol), MgSO4 (magnesium sulfate), MS (mass spectrometry), MTBE (Methyl tert-butyl ether), NaHCO3 (sodium bicarbonate), NaBH4 (sodium borohydride), NMM (N-methyl morpholine), NMR (Nuclear Magnetic Resonance), PyBOP (benzotriazole-1-yl-oxy-trispyrrolidino-phosphonium hexafluorophosphate), RT (room temperature), Rt (retention time), SPE (solid phase extraction), TBTU (2-(1-H-benzotriazole-1-yl)-1,1,3,3-tetramethyluromium tetrafluoro borate), TEA (triethylamine), TFA (trifluoroacetic acid), THF (tetrahydrofuran), TLC (Thin Layer Chromatography), UV (Ultraviolet). Description of the In Vitro Assays Abbreviations: GST=Glutathione-S-transferase FRET=Fluorescence resonance energy transfer HTRF®=(homogenous time resolved fluorescence) HEPES=4-(2-hydroxyethyl)-1-piperazine ethanesulfonic acid buffer DTT=Dithiothreitol BSA=bovine serum albumin CHAPS=detergent; CHAPS=3[(3-cholamidopropyl)dimethylammonio]-1-propanesulfonate Streptavidin-XLent® is a high grade streptavidin-XL665 conjugate for which the coupling conditions have been optimized to yield a conjugate with enhanced performances for some assays, particularly those requiring high sensitivity.
# (§2) The autoparsylation assay is run in two steps: the enzymatic reaction in which GST-tagged Tankyrase-1, resp Tankyrase-2 transferred biotinylated ADP-ribose to itself from biotinylated NAD as co-substrate and the detection reaction where a time resolved FRET between cryptate labelled anti-GST bound to the GST tag of the enzyme and Xlent® labelled-streptavidin bound the biotin-parsylation residue is analysed. The autoparsylation activity was detectable directly via the increase in HTRF signal.
# (§3) The autoparsylation assay is performed as 384-well HTRF® (Cisbio, Codolet, France) assay format in Greiner low volume nb 384-well microtiter plates and is used for high throughput screen. […] The reaction is stopped by the addition of 1 μl 50 mM EDTA solution. […] The ratio of the emission signals is determined. The full value used is the inhibitor-free reaction. […] The inhibitory values (IC50) are determined using either the program Symyx Assay Explorer® or Condosseo® from GeneData.
# [3] = target: T1, GST-tagged Tankyrase-1 (1023-1327 aa) (Homo sapiens, UniProt O95271); experiment: biochemical; conditions: read-out: IC50 tankyrase 1 (enzyme assay)
# T1 construct: GST-tagged Tankyrase-1 (1023-1327 aa)
# T1 sequence (O95271 1023-1327): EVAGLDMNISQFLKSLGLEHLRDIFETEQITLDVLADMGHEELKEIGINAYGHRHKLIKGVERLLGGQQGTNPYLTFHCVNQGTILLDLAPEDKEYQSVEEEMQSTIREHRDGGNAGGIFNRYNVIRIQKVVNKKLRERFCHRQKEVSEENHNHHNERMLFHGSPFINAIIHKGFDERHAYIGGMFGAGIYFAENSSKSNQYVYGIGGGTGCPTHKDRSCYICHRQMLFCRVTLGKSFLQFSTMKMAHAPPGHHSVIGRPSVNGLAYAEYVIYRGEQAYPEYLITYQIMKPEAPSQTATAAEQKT
# Description: as §1, §2, §3
# [4] = system: tankyrase 1/2; experiment: Cellular inhibition of tankyrase: increase of Axin2 level in DLD1 cells (Luminex); assay type: cell-based; conditions: read-out: EC50 tankyrase 1/2 (cell assay), 24 hours
# Method: Measurement of Cellular Inhibition of Tankyrase
# Cells of the colon carcinoma cell line DLD1 are plated in 96 well plates with 1.5×10^4 cells per well. Next day, cells are treated with a serial dilution of test compound in seven steps as triplicates with a final DMSO concentration of 0.3%. After 24 hours, cells are lysed in lysis buffer (20 mM Tris/HCl pH 8.0, 150 mM NaCl, 1% NP40, 10% Glycerol) and lysates are cleared by centrifugation through a 96 well filter plate (0.65 μm). […] The amount of isolated Axin2 protein is determined in a Luminex^200 machine (Luminex Corporation) according to the manufacturer's instruction by counting 100 events per well. […] For analysis, the obtained data are normalized against the untreated solvent control and fitted for determination of the EC50 values using the Assay Explorer software (Accelrys).
# [5] = target: GST-tagged Tnks-2 (873-1166 aa) (Homo sapiens, UniProt Q9H2K2); experiment: biochemical
# GST-tagged Tnks-2 (873-1166 aa), sequence (Q9H2K2 873-1166): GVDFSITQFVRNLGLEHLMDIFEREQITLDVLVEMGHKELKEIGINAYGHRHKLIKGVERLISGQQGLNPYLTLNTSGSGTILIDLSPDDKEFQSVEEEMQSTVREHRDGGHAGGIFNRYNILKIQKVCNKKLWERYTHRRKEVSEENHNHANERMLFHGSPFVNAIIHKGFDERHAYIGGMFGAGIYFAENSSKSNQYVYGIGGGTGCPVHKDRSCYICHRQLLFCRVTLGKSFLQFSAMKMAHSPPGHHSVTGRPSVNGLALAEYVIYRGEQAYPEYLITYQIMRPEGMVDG
# Method: (§4) Description of the TNKS1 and TNKS2 ELISA Assay
# (§5) Then the activity assay with biotinylated NAD is performed in the absence/presence of the compounds. During the enzymatic reaction GST tagged TNKS transfers biotinylated ADP-ribose to itself from biotinylated NAD as co-substrate. For the detection streptavidin-HRP conjugate is added that binds to the biotinylated TNKS and is thereby captured to the plates. The amount of biotinylated resp. autoparsylated TNKS is detected with a luminescence substrate for HRP. The level of the luminescence signal correlates directly with the amount of autoparsylated TNKS and therefore with activity of TNKS.
# (§6) The activity ELISA is performed in 384 well Glutathione coated microtiter plates (Express capture Glutathione coated plate, Biocat, Heidelberg, Germany). The plates are pre-equilibrated with PBS. […] The plates are washed 3 times with PBS-Tween-20. The wells are blocked by incubation at room temperature for 20 minutes with 50 μl blocking buffer (PBS, 0.05% Tween-20, 0.5% BSA). Afterwards the plates are washed 3 times with PBS-Tween-20. […] The reaction is stopped by 3 times washing with PBS-Tween-20. For the detection 50 μl of 20 ng/μl Streptavidin, HRP conjugate (MoBiTec, Gottingen, Germany) in PBS/0.05% Tween-20/0.01% BSA are added and the plates are incubated for 30 minutes at room temperature. After three times washing with PBS-Tween-20 50 μl of SuperSignal ELISA Femto Maximum sensitivity substrate solution (ThermoFisherScientific (Pierce), Bonn, Germany) are added. Following a 1 minute incubation at room temperature luminescence signals are measured with an Envision multimode reader (Perkin Elmer LAS Germany GmbH) at 700 nm. The full value used is the inhibitor-free reaction. […] The inhibitory values (IC50) are determined using either the program Symyx Assay Explorer® or Condosseo® from GeneData.
# [6] = target: T2, His-tagged Parp-1 (Homo sapiens, UniProt P09874); experiment: PARP-1 autoparsylation assay (HTRF); assay type: biochemical
# T2 construct: purchased Enzo Life Sciences GmbH, Lörrach, Germany
# T2 sequence (P09874 whole entry): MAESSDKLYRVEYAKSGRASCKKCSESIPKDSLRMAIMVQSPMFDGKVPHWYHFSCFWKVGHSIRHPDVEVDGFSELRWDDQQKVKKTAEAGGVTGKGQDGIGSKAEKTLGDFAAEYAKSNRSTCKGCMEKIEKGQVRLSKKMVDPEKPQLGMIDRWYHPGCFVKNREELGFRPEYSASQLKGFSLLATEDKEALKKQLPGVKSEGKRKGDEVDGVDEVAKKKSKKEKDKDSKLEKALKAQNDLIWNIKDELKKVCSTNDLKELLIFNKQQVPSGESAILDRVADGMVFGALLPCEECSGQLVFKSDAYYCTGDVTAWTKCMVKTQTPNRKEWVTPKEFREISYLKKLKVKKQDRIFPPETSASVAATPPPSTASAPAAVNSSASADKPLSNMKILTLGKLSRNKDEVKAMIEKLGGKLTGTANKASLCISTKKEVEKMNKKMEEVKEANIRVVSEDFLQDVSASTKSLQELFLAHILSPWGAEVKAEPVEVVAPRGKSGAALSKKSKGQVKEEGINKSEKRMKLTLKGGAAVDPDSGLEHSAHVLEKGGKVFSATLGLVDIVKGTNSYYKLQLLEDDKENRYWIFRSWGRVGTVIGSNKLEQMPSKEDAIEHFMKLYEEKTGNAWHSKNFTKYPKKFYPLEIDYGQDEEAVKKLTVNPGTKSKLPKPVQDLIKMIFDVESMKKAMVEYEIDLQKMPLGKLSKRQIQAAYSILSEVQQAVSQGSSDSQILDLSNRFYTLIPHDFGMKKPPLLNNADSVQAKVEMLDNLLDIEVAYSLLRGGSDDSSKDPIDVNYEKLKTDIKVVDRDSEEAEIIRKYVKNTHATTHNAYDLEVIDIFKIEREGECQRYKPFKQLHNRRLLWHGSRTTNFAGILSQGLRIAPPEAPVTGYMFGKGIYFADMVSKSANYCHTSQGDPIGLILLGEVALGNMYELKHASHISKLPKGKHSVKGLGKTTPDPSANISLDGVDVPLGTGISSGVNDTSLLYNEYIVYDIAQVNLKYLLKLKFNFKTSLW
# Description: Description of the PARP1 Assay
# Biochemical Activity Testing of PARP-1: Autoparsylation Assay
# as §2, with “His-tagged Parp-1 transfers” for “GST-tagged Tankyrase-1, resp Tankyrase-2 transferred”, “ADP-ribose/ADP-ribose” for “ADP-ribose”, “NAD/NAD” for “NAD”, “anti-His antibody” for “anti-GST”, “His” for “GST”, “is” for “was”
# The autoparsylation assay is performed as 384-well HTRF® (Cisbio, Codolet, France) assay format in Greiner low volume nb 384-well microtiter plates. 35 nM His-tagged Parp-1 (human, recombinant, Enzo Life Sciences GmbH, Lörrach, Germany) and a mixture of 125 nM bio-NAD (Biolog, Life science Inst., Bremen, Germany) and 800 nM NAD as co-substrate are incubated in a total volume of 6 μl (100 mM Tris/HCl, 4 mM Mg-chloride, 0.01% IGEPAL® CA630, 1 mM DTT, 0.5% DMSO, pH 8, 13 ng/μl activated DNA (BPS Bioscience, San Diego, US)) in the absence or presence of the test compound (10 dilution concentrations) for 150 min at 23° C. The reaction is stopped by the addition of 4 μl of the Stop/detection solution (70 nM SA-Xlent® (Cisbio, Codolet, France), 2.5 nM Anti-His-K® (Eu-labelled anti-His, Cisbio, Codolet, France) in 50 mM HEPES, 400 mM KF, 0.1% BSA, 20 mM EDTA, pH 7.0). After 1 h incubation at room temperature the HTRF iss measured with an Envision multimode reader (Perkin Elmer LAS Germany GmbH) at excitation wavelength 340 nm (laser mode) and emission wavelengths 615 nm and 665 nm. The ratio of the emission signals is determined. The full value used is the inhibitor-free reaction. The pharmacological zero value used is Olaparib (LClabs, Woburn, US) in a final concentration of 1 The inhibitory values (IC50) are determined using either the program Symyx Assay Explorer® or Condosseo® from GeneData.
# [7] = target: T3, GST-tagged Tnks-1 (1023-1327 aa) (Homo sapiens, UniProt O95271); experiment: TNKS1 activity ELISA (autoparsylation assay); assay type: biochemical
# T3 construct: GST-tagged Tnks-1 (1023-1327 aa, prepared in-house); made in house
# T3 sequence (O95271 1023-1327): as the sequence (O95271 1023-1327) above
# Method: as §4, §5, §6
# [8] = system: DLD-1-cancer cells; conditions: cited from earlier work
# [9] = system: β-catenin; conditions: by increasing the levels of the AXIN1 and AXIN2 proteins; cited from earlier work
# GST-tagged Tankyrase-2 (873-1166 aa), sequence (Q9H2K2 873-1166): as the sequence (Q9H2K2 873-1166) above
Compound,IC50 [2] [nM],IC50 [3] [nM],IC50 [6] [nM],further results
O=c1[nH]c(-c2ccc3c(c2)OCO3)nc2ccccc12,–,–,–,cellular assay [1]: no effect
"Cc1cc(F)cc2c(=O)[nH]c(-c3ccc(N4CCCN(C)CC4)cc3)nc12 [Compound A32, 6-fluoro-8-methyl-2-[4-(4-methyl-[1,4]diazepan-1-yl)-phenyl]-3H-quinazolin-4-one]",300 to 3000,300 to 3000,–,EC50 [4]: 300 to 3000 nM
"Cc1cc(F)cc2c(=O)[nH]c(-c3ccc(N4CCS(=O)(=O)CC4)cc3)nc12 [Compound A30, 2-[4-(1,1-dioxo-1|6-thiomorpholin-4-yl)-phenyl]-6-fluoro-8-methyl-3H-quinazolin-4-one]",300 to 3000,300 to 3000,300 to 3000,IC50 [5]: < 300 nM; EC50 [4]: < 300 nM; IC50 [7]: < 300 nM
Oc1nc(-c2ccc(C(F)(F)F)cc2)nc2c1CSCC2 [XAV939],–,–,–,growth of DLD-1-cancer cells [8]: inhibits growth; Wnt-stimulated accumulation of β-catenin [9]: blocked
"CC(C)c1ccc(-c2nc3ccc(F)cc3c(=O)[nH]2)cc1 [Compound A22, 6-fluoro-2-(4-isopropyl-phenyl)-3H-quinazolin-4-one]",300 to 3000,300 to 3000,–,–
"Cc1cc(F)cc2c(=O)[nH]c(-c3ccc(C(C)(C)O)cc3)nc12 [Compound A25, 6-fluoro-2-[4-(1-hydroxy-1-methyl-ethyl)-phenyl]-8-methyl-3H-quinazolin-4-one]",–,< 300,< 300,IC50 ([7]; read-out: IC50 TNKS1 ELISA): < 300 nM
"CC(C)(O)c1ccc(-c2nc3ccc(F)cc3c(=O)[nH]2)cc1 [Compound A1, 6-fluoro-2-[4-(1-hydroxy-1-methyl-ethyl)-phenyl]-3H-quinazolin-4-one]",–,< 300,300 to 3000,IC50 ([7]; read-out: IC50 TNKS1 ELISA): < 300 nM
